# Reference: patent publication US20050197350A1, “Novel quinoline, tetrahydroquinazoline, and pyrimidine derivatives and methods of treatment related to the use thereof” (TAISHO PHARMACEUTICAL CO., LTD., priority 2003, published 2005)
# System: MCH receptors
# Test: MCH receptor activity class (method not given)
# Settings: class by percent of control at 10^-7 M or IC50
row,SMILES,class
1,"Cc1cc(Br)cc(C)c1NC(=O)NC[C@H]1CC[C@@H](Nc2nc3c(c(N(C)C)n2)CCCC3)CC1 [compound 2482, N-(4-bromo-2,6-dimethylphenyl)-N′-[(cis-4-{[4-(dimethylamino)-5,6,7,8-tetrahydroquinazolin-2-yl]amino}cyclohexyl)methyl]urea]",1 (Class 1: The value of percent of control at 10^−7 M was less than 40% or the value of IC50 was less than 50 nM.)
2,Cc1noc(-c2ccccc2)c1NC(=O)NC[C@H]1CC[C@@H](Nc2nc3c(c(N(C)C)n2)CCCC3)CC1 [compound 2483],3 (Class 3 The value of percent of control at 10^−7 M was more than 60% or the value of IC50 was more than 200 nM.)
3,Cc1cc(NC(=O)NC[C@H]2CC[C@@H](Nc3nc4c(c(N(C)C)n3)CCCC4)CC2)c(C(F)(F)F)o1 [compound 2484],3 (Class 3 The value of percent of control at 10^−7 M was more than 60% or the value of IC50 was more than 200 nM.)
4,CN(C)c1nc(N[C@H]2CC[C@@H](CNC(=O)Nc3cc(Cl)cc(Cl)c3)CC2)nc2c1CCCC2 [compound 2485],3 (Class 3 The value of percent of control at 10^−7 M was more than 60% or the value of IC50 was more than 200 nM.)
5,CN(C)c1nc(N[C@H]2CC[C@@H](CNC(=O)Nc3cccc(Cl)c3Cl)CC2)nc2c1CCCC2 [compound 2486],3 (Class 3 The value of percent of control at 10^−7 M was more than 60% or the value of IC50 was more than 200 nM.)
6,Cc1ccc(NC(=O)NC[C@H]2CC[C@@H](Nc3nc4c(c(N(C)C)n3)CCCC4)CC2)cc1 [compound 2487],3 (Class 3 The value of percent of control at 10^−7 M was more than 60% or the value of IC50 was more than 200 nM.)
7,"CC(C)c1cccc(C(C)C)c1NC(=O)NC[C@H]1CC[C@@H](Nc2nc3c(c(N(C)C)n2)CCCC3)CC1 [compound 2488, N-(2,6-diisopropylphenyl)-N′-[(cis-4-{[4-(dimethylamino)-5,6,7,8-tetrahydroquinazolin-2-yl]amino}cyclohexyl)methyl]urea]",2 (Class 2: The value of percent of control at 10^−7 M was from 40% to 60% or the value of IC′50 was from 50 nM to 200 nM.)
8,Cc1ccc([N+](=O)[O-])c(NC(=O)NC[C@H]2CC[C@@H](Nc3nc4c(c(N(C)C)n3)CCCC4)CC2)c1C [compound 2489],2 (Class 2: The value of percent of control at 10^−7 M was from 40% to 60% or the value of IC′50 was from 50 nM to 200 nM.)
9,"CN(C)c1nc(N[C@H]2CC[C@@H](CNC(=O)Nc3c(Br)cc(F)cc3Br)CC2)nc2c1CCCC2 [compound 2490, N-(2,6-dibromo-4-fluorophenyl)-N′-[(cis-4-{[4-(dimethylamino)-5,6,7,8-tetrahydroquinazolin-2-yl]amino}cyclohexyl)methyl]urea]",1 (Class 1: The value of percent of control at 10^−7 M was less than 40% or the value of IC50 was less than 50 nM.)
10,"CN(C)c1nc(N[C@H]2CC[C@@H](CNC(=O)Nc3c(Cl)cccc3Cl)CC2)nc2c1CCCC2 [compound 2491, N-(2,6-dichlorophenyl)-N′-[(cis-4-{[4-(dimethylamino)-5,6,7,8-tetrahydroquinazolin-2-yl]amino}cyclohexyl)methyl]urea]",1 (Class 1: The value of percent of control at 10^−7 M was less than 40% or the value of IC50 was less than 50 nM.)
11,COc1ccc(C)cc1NC(=O)NC[C@H]1CC[C@@H](Nc2nc3c(c(N(C)C)n2)CCCC3)CC1 [compound 2492],3 (Class 3 The value of percent of control at 10^−7 M was more than 60% or the value of IC50 was more than 200 nM.)
12,Cc1cccc([N+](=O)[O-])c1NC(=O)NC[C@H]1CC[C@@H](Nc2nc3c(c(N(C)C)n2)CCCC3)CC1 [compound 2493],3 (Class 3 The value of percent of control at 10^−7 M was more than 60% or the value of IC50 was more than 200 nM.)
13,CN(C)c1nc(N[C@H]2CC[C@@H](CNC(=O)Nc3ccc(F)c(F)c3)CC2)nc2c1CCCC2 [compound 2494],3 (Class 3 The value of percent of control at 10^−7 M was more than 60% or the value of IC50 was more than 200 nM.)
14,CN(C)c1nc(N[C@H]2CC[C@@H](CNC(=O)Nc3cc(F)cc(F)c3)CC2)nc2c1CCCC2 [compound 2495],3 (Class 3 The value of percent of control at 10^−7 M was more than 60% or the value of IC50 was more than 200 nM.)
15,CN(C)c1nc(N[C@H]2CC[C@@H](CNC(=O)Nc3ccc(F)c(Cl)c3)CC2)nc2c1CCCC2 [compound 2496],3 (Class 3 The value of percent of control at 10^−7 M was more than 60% or the value of IC50 was more than 200 nM.)

# Same assay, conditions: class by percent of control at 10^−7 M or IC50
row,SMILES,class
1,"Cc1cnc(N[C@H]2CC[C@@H](CNC(=O)c3ccccc3)CC2)nc1N(C)C [compound 2690, N-[(cis-4-{[4-(dimethylamino)-5-methylpyrimidin-2-yl]amino}cyclohexyl)methyl]benzamide]",3 (Class 3 The value of percent of control at 10^−7 M was more than 60% or the value of IC50 was more than 200 nM.)
2,Cc1ccc(C(=O)NC[C@H]2CC[C@@H](Nc3ncc(C)c(N(C)C)n3)CC2)cc1 [compound 2691],3 (Class 3 The value of percent of control at 10^−7 M was more than 60% or the value of IC50 was more than 200 nM.)
3,"Cc1cnc(N[C@H]2CC[C@@H](CNC(=O)c3ccc(F)c(F)c3)CC2)nc1N(C)C [compound 2692, N-[(cis-4-{[4-(dimethylamino)-5-methylpyrimidin-2-yl]amino}cyclohexyl)methyl]-3,4-difluorobenzamide]",2 (Class 2: The value of percent of control at 10^−7 M was from 40% to 60% or the value of IC′50 was from 50 nM to 200 nM.)
4,COc1ccc(C(=O)NC[C@H]2CC[C@@H](Nc3ncc(C)c(N(C)C)n3)CC2)cc1 [compound 2693],3 (Class 3 The value of percent of control at 10^−7 M was more than 60% or the value of IC50 was more than 200 nM.)
5,"COc1cc(OC)cc(C(=O)NC[C@H]2CC[C@@H](Nc3ncc(C)c(N(C)C)n3)CC2)c1 [compound 2694, N-[(cis-4-{[4-(dimethylamino)-5-methylpyrimidin-2-yl]amino}cyclohexyl)methyl]-3,5-dimethoxybenzamide]",1 (Class 1: The value of percent of control at 10^−7 M was less than 40% or the value of IC50 was less than 50 nM.)
6,"Cc1ccc(C(=O)NC[C@H]2CC[C@@H](Nc3ncc(C)c(N(C)C)n3)CC2)cc1F [compound 2695, N-[(cis-4-{[4-(dimethylamino)-5-methylpyrimidin-2-yl]amino}cyclohexyl)methyl]-3-fluoro-4-methylbenzamide]",2 (Class 2: The value of percent of control at 10^−7 M was from 40% to 60% or the value of IC′50 was from 50 nM to 200 nM.)
7,Cc1cc(C(=O)NC[C@H]2CC[C@@H](Nc3ncc(C)c(N(C)C)n3)CC2)ccc1F [compound 2696],2 (Class 2: The value of percent of control at 10^−7 M was from 40% to 60% or the value of IC′50 was from 50 nM to 200 nM.)
8,"Cc1cnc(N[C@H]2CC[C@@H](CNC(=O)c3cccc(C(F)(F)F)c3)CC2)nc1N(C)C [compound 2697, N-[(cis-4-{[4-(dimethylamino)-5-methylpyrimidin-2-yl]amino}cyclohexyl)methyl]-3-(trifluoromethyl)benzamide]",1 (Class 1: The value of percent of control at 10^−7 M was less than 40% or the value of IC50 was less than 50 nM.)
9,Cc1cnc(N[C@H]2CC[C@@H](CNC(=O)c3ccc(C(F)(F)F)cc3)CC2)nc1N(C)C [compound 2698],3 (Class 3 The value of percent of control at 10^−7 M was more than 60% or the value of IC50 was more than 200 nM.)
10,"Cc1cnc(N[C@H]2CC[C@@H](CNC(=O)c3cccc(OC(F)(F)F)c3)CC2)nc1N(C)C [compound 2699, N-[(cis-4-{[4-(dimethylamino)-5-methylpyrimidin-2-yl]amino}cyclohexyl)methyl]-3-(trifluoromethoxy)benzamide]",2 (Class 2: The value of percent of control at 10^−7 M was from 40% to 60% or the value of IC′50 was from 50 nM to 200 nM.)
11,"Cc1cnc(N[C@H]2CC[C@@H](CNC(=O)c3ccc(OC(F)(F)F)cc3)CC2)nc1N(C)C [compound 2700, N-[(cis-4-{[4-(dimethylamino)-5-methylpyrimidin-2-yl]amino}cyclohexyl)methyl]-4-(trifluoromethoxy)benzamide]",2 (Class 2: The value of percent of control at 10^−7 M was from 40% to 60% or the value of IC′50 was from 50 nM to 200 nM.)
12,Cc1cnc(N[C@H]2CC[C@@H](CNC(=O)c3ccc(C#N)cc3)CC2)nc1N(C)C [compound 2701],2 (Class 2: The value of percent of control at 10^−7 M was from 40% to 60% or the value of IC′50 was from 50 nM to 200 nM.)
13,Cc1cnc(N[C@H]2CC[C@@H](CNC(=O)c3ccc(Br)cc3)CC2)nc1N(C)C [compound 2702],1 (Class 1: The value of percent of control at 10^−7 M was less than 40% or the value of IC50 was less than 50 nM.)
14,"Cc1cc(C(=O)NC[C@H]2CC[C@@H](Nc3ncc(C)c(N(C)C)n3)CC2)ccc1Br [compound 2703, 4-bromo-N-[(cis-4-{[4-(dimethylamino)-5-methylpyrimidin-2-yl]amino}cyclohexyl)methyl]-3-methylbenzamide]",1 (Class 1: The value of percent of control at 10^−7 M was less than 40% or the value of IC50 was less than 50 nM.)
15,Cc1cnc(N[C@H]2CC[C@@H](CNC(=O)c3ccc(F)c(Cl)c3)CC2)nc1N(C)C [compound 2704],1 (Class 1: The value of percent of control at 10^−7 M was less than 40% or the value of IC50 was less than 50 nM.)
16,"Cc1cnc(N[C@H]2CC[C@@H](CNC(=O)c3ccc(C(F)(F)F)c(F)c3)CC2)nc1N(C)C [compound 2705, N-[(cis-4-{[4-(dimethylamino)-5-methylpyrimidin-2-yl]amino}cyclohexyl)methyl]-3-fluoro-4-(trifluoromethyl)benzamide]",2 (Class 2: The value of percent of control at 10^−7 M was from 40% to 60% or the value of IC′50 was from 50 nM to 200 nM.)
17,"Cc1cnc(N[C@H]2CC[C@@H](CNC(=O)c3cc(Cl)cc(Cl)c3)CC2)nc1N(C)C [compound 2706, 3,5-dichloro-N-[(cis-4-{[4-(dimethylamino)-5-methylpyrimidin-2-yl]amino}cyclohexyl)methyl]benzamide]",1 (Class 1: The value of percent of control at 10^−7 M was less than 40% or the value of IC50 was less than 50 nM.)
